# Data published in PubChem BioAssay AID2305 (GlaxoSmithKline (GSK), 2010).
# Test system: P. falciparum 3D7 growth, pLDH absorbance
# Test: blood-stage malaria parasite growth potency – strain 3D7, dose response (AID 2305)
row,Structure (SMILES),IC50 [nM]
1,COc1ccc(-c2nc(NC(=O)CSc3ccc([N+](=O)[O-])cc3)sc2C)cc1,140
2,COc1cccc(C2CCN(CCN3CCC(CNC(=O)c4ccc(-c5ccc(C(F)(F)F)cc5)cc4)CC3)CC2)c1,890
3,CO/C(=C\C=C\c1cc2cc(Cl)c(Cl)cc2[nH]1)C(=O)NCCCN1CCN(c2cccc(CCCO)c2)CC1,1030
4,Cc1cccc2[nH]c(-c3ccc(-c4ccc(CNCCCN5CCCC5=O)cc4)cc3)nc12,630
5,O=C(Nc1ccccc1O)c1ccc(S(=O)(=O)c2ccc(Cl)cc2)cc1,1350
6,CCc1cn2c3c(cc(C(=O)N[C@@H](Cc4ccccc4)[C@H](O)CNC(C)C)cc13)N(C)S(=O)(=O)C2,320
7,COc1ccc2ncc(F)c(CCN3CC[C@H](NCc4cc5c(s4)CCCN5)[C@H](O)C3)c2n1,960
8,COCCN1CCN(Cc2ccc(-c3ccc(-c4nc5c(C)cccc5[nH]4)s3)cc2)CC1,860
9,Cc1cccc2[nH]c(-c3ccc(-c4ccc(NC(=O)CN5CCN(C)CC5)cc4)s3)nc12,1020
10,COc1cc(-c2ccc(-c3cnc(N)nc3OC)[nH]2)cc(OC)c1OC,730
11,COc1ccc(C(=O)CCC(=O)N(Cc2ccc(-c3ccc(CNCCc4ccc(S(C)(=O)=O)cc4)cn3)cc2)Cc2ccc3c(c2)OCO3)cc1F,940
12,O=C(NCCCCN1CCC(c2ccc3c(c2OCCN2CCCC2)CCCC3)CC1)c1ccc(-c2ccc(C(F)(F)F)cc2)cc1,450
13,CCN(CC)CCCNCc1ccc(-c2ccc(C(F)(F)F)cc2)cc1,990
14,Nc1nccc2ccc(-c3ccc4nccn4c3)cc12,100
15,O=C(Nc1ccc(Cn2ncc(N3CCNCC3)c(Cl)c2=O)cc1)Nc1ccc(-c2ccccc2)cc1,590
16,CCN(CCO)CCc1cccc(Nc2nccc(-c3c(-c4ccc(NC(=O)C(C)(C)C)cc4)nn4ccccc34)n2)c1,710
17,Cc1n[nH]c(C)c1C1CCN(CC2CCC(NC(=O)/C=C/c3ccc(Cl)c(Cl)c3)CC2)CC1 (stereo not given),730
18,CN1CCN(c2ccnc3ccc(NC(=O)Cc4ccc(Br)c5ccccc45)cc23)CC1,810
19,CC(C)(C)c1ccc(-c2cc(C(=O)N[C@@H](CO)C(=O)O)on2)cc1 (tested in a mixture with another compound),970
20,Cc1ccc2[nH]cc(/C=C/C(=O)NC3CCC(CCN4CCc5ccc(C#N)cc5CC4)CC3)c2c1 (stereo not given),920
21,O=C(Nc1ccc(C(F)(F)F)cc1)c1ccc(NCCCN2CCCCCC2)c([N+](=O)[O-])c1,320
22,CCCCCCn1ccc2c3c(N)nc(N)nc3ccc21,150
23,CCc1ccc(-n2c(NC(=O)c3ccccc3)nc3ccc(S(=O)(=O)NC(C)C(C)C)cc32)cc1 (stereo not given),930
24,O=C(c1cc(C(=O)Nc2ccccc2)c(=O)n(-c2ccccc2)c1)c1cc(Cl)ccc1O,390

row,Structure (SMILES),IC50 [nM]
1,CN1C(C)(C)CC(NC(=O)c2ccc(-c3nc4ccc(Cl)cc4[nH]3)cc2)CC1(C)C,990
2,O=C(Nc1cccc(C(F)(F)F)c1)NC1CCN(c2ccnc3ccccc23)C1 (stereo not given),290
3,O=C(/C=C/c1ccc(Cl)c(Cl)c1)N1CCC(NCc2ccc3[nH]ccc3c2)CC1,1020
4,Cc1cccc2[nH]c(-c3ccc(-c4cccc(NC(=O)CCc5cnc[nH]5)c4)s3)nc12,840
5,COc1ccc2ncc(F)c(CCN3CCC(CNCc4cccc5c4OCO5)CC3)c2n1,930
6,Cc1cc(Nc2cccc(C(F)(F)F)c2)nc(NCc2ccccc2)n1,150
7,Oc1ccc(-c2cc(COc3ccccc3C(F)(F)F)c(C3=CCNCC3)cc2COc2ccccc2C(F)(F)F)cc1,780
8,CCCNC(=O)c1ccnc(-c2ccc(CNC3Cc4ccccc4C3)cc2)c1,940
9,COc1ccc(-c2ccc(NC(=O)c3cccc(C#N)c3)cc2)cc1CN1CCNCC1,730
10,Cc1[nH]c(C)c(-c2ccc(Br)cc2)c(=O)c1Br,640
11,CC1CCN(CCCNc2ccc(C(=O)Nc3ccc(C(F)(F)F)cc3)cc2[N+](=O)[O-])CC1,340
12,CC(C)(C)c1ccc(CNC(=O)c2ccc(-c3nc4ccc(C(C)(C)C)cc4[nH]3)cc2)cc1,840
13,COc1cc2c(cc1C(F)(F)F)N(C(=O)Nc1cc(F)cc(-c3cncnc3)c1)CC2,500
14,CCc1ccc(O)c(-c2cc(C(=O)Nc3ccc(OC)c(Cl)c3)[nH]n2)c1,870
15,NC1=NC2(CCCCC2)N(OCCCCCCN2C(=O)c3ccccc3C2=O)C(N)=N1,870
16,COc1ccc(CNC(=O)c2cnc3c(O)cccc3c2Nc2cccc(NC(=O)c3ccc(-c4ccccc4)cc3)c2)cc1,940
17,COc1cc(CCCON2C(N)=NC(N)=NC2(C)C)cc(OC)c1OC,40
18,Cc1ccc(Cc2c(N)nc3nc(N)nc(N)c3c2C)cc1,190
19,CCOC(=O)c1[nH]c2cc(Cl)cc(Cl)c2c1/C=C/C(=O)Nc1ccc(-c2cnc(NC(C)=O)[nH]2)cc1,1020
20,COC(=O)c1ccc(OCC(C)NCC(O)c2cccc(C(F)(F)F)c2)cc1 (stereo not given),840
21,O=[N+]([O-])c1ccc2nccnc2c1,1070
22,Cc1ccc2cc(NC(=O)c3cccc(C(=O)Nc4ccc5nc(C)ccc5c4)n3)ccc2n1,1170
23,CCCn1c(SCC(=O)Nc2cc(C(F)(F)F)ccc2Cl)n[nH]c1=O,220
24,COc1ccc(C2C(C(=O)Nc3cc(C)ccc3OC)c3ccccc3C(=O)N2C)cc1 (stereo not given),980

row,Structure (SMILES),IC50 [nM]
1,Cc1ccc(CN(Cc2ccc(C(=O)N(C)C)cc2)Cc2ccc3c(c2)OCCO3)cc1C,800
2,OCC1CCN(Cc2cccc(-c3cccc(-c4nc5ccc(C(F)(F)F)cc5[nH]4)c3)c2)CC1,510
3,O=C(Nc1cccc(-c2ccc(-c3nc4ccccc4[nH]3)cc2)c1)c1csnn1,1070
4,O=C(CCNc1ccnc(NCCc2ccccc2)n1)Nc1ccccc1,840
5,Cc1nc(-c2ccc(-c3ccc(NC(=O)c4coc5ccc(N6C[C@@H](C)N[C@@H](C)C6)cc45)cc3)c(C)c2)no1,930
6,O=C(/C=C/c1ccc(Cl)cc1)NCCCCCN1CCN(C(=O)Nc2ccc(Cl)c(C(F)(F)F)c2)CC1,920
7,Cc1cccc(C(=O)Nc2ccnc(N3CCC(N(C)Cc4ccccc4)CC3)c2)c1,960
8,CN=C(NO)NCCN(C)C,1180
9,CC1(C)[C@H]2CC[C@]1(C)CN(CC(O)Cn1c3ccccc3c3cc(I)ccc31)C2 (stereo not given in full),1160
10,Cc1cccc2[nH]c(-c3ccc(-c4cccc(CNCCc5ccncc5)c4)s3)nc12,140
11,CC(C)Nc1cc(C(=O)N[C@@H](Cc2ccccc2)[C@H](O)CNC2CCOCC2)c(F)c(N2CCCCS2(=O)=O)c1,180
12,OC1CCCN(Cc2ccc(-c3cccc(-c4nc5ccccc5[nH]4)c3)cc2)C1 (stereo not given),1340
13,CC(C)(C(=O)Nc1ccc(C2CCC(NCC3CC3)CC2)c(Cl)c1)c1cccc(OC(F)F)c1 (stereo not given),970
14,COc1cccc(C2(c3cccc(OC)c3)N=C(N)N(CCCc3ccccc3)C2=O)c1,260
15,CC(C)(C)c1cc(C(=O)N2CCN(c3ccc(C(F)(F)F)cn3)CC2)n(Cc2ccc(F)cc2)n1,980
16,O=C(/C=C/c1ccc(Cl)c(Cl)c1)NCCCCCN1CCC(NC(=O)Nc2ccc(F)c(Cl)c2)CC1,620
17,O=C(NC1CCN(Cc2ccccc2)CC1)c1cc(-c2cccnc2)nc2ccc(Cl)cc12,760
18,CC(C)NCc1cccc(-c2cccc(NC(=O)c3ccc(C#N)cc3)c2)c1,650
19,COc1cc2nc(N3CCN(C(=O)c4ccc(N(C(=O)OC(C)(C)C)C(=O)OC(C)(C)C)cc4)CC3)nc(N)c2cc1OC,1000
20,Cc1cccc2[nH]c(-c3ccc(-c4cccc(CN5CCCCC5)c4)s3)nc12,470
21,Cc1cccc(-c2ccc(NC(=O)Nc3ccc4nccc(N5CCN(C)CC5)c4c3)cc2C)n1,210
22,O=C1Nc2cccc3c2C1(CCCCN1CC=C(c2c[nH]c4ncccc24)CC1)CCC3 (stereo not given),400
23,O=C(NCc1ccc(Cl)c(Cl)c1)c1cc(CNC2CCNCC2)ccc1O,860
24,COc1ccccc1CCNc1nccc(N[C@@H](Cc2ccccc2)C(=O)NCc2cccs2)n1,870

row,Structure (SMILES),IC50 [nM]
1,Cc1ccc(S(=O)(=O)N2CCN(C(=O)c3cc(-c4cccs4)[nH]n3)CC2)c(C)c1,870
2,Cc1cccc2[nH]c(-c3ccc(-c4cccc(NC(=O)c5cnccc5C(F)(F)F)c4)cc3)nc12,1000
3,COc1ccc2nccc([C@@H](O)CN3CCC(NCc4cc5cc(OC(F)(F)F)ccc5[nH]4)CC3)c2c1,130
4,COc1ccc2nccc([C@@H](O)CNCCCN(C)CCOc3cc(F)cc(F)c3)c2c1,790
5,CCCCNCc1ccc(-c2nc(CN(Cc3ccc(Cl)c(Cl)c3)S(=O)(=O)c3ccc(NC(C)=O)cc3)cs2)cc1,1030
6,Cc1cn(CC(=O)Nc2cccc(-c3cccc(-c4nc5ccc(C(F)(F)F)cc5[nH]4)c3)c2)c(=O)[nH]c1=O,680
7,CCc1cc(C(=O)c2cccc(C)c2)c(NC(=O)CN2CCN(C(=O)c3ccco3)CC2)s1,450
8,CC(CNC1CCN(CCn2c(=O)ccc3ccc(F)cc32)CC1)c1ccccc1 (stereo not given),1270
9,COC(=O)[C@@H](NC(=O)[C@H](Cc1ccc(OC)c(OC)c1)Nc1ccc(C#N)c2ccccc12)c1ccc(O)cc1,750
10,Oc1ccc(Nc2nc(NCC3CCCO3)c3ccccc3n2)cc1 (stereo not given),810
11,CS(=O)(=O)c1cccc(-c2cnc(N)c3cc(-c4ccc(F)cc4)ccc23)c1,900
12,COc1ccc(C2CCN(CCCNC(=O)c3ccc(NC(=O)c4ccc(Cl)cc4)cc3)CC2)c(OC)c1,760
13,CC(C)[C@H](NC(=O)c1ccc(O)c(-c2ccc(Cl)c(Cl)c2)c1)C(=O)NCCN1CCCC1,930
14,Cc1cccc2[nH]c(-c3ccc(-c4cccc(CN5CCN(c6ccncc6)CC5)c4)s3)nc12,130
15,NC(N)=Nc1ccc(OCCCCCOc2ccc(N=C(N)N)c(Cl)c2)cc1Cl,860
16,Cc1ccc(C2(CN3CCC(NC(=O)c4ccn[nH]4)CC3)CCCCC2)cc1,220
17,CCOc1ccc2nc(C)cc(NN=Cc3ccc(Cl)cc3)c2c1,760
18,CCn1c2ccccc2c2cc(C=NNc3cc(C)nc4ccccc34)ccc21,310
19,CN1CCC(NCc2cccc(-c3ccc(S(=O)(=O)NCCN4CCCC4)c(F)c3)c2)CC1,1010
20,O=C(Nc1ccc([N+](=O)[O-])cc1Cl)c1cc(Br)cc(Cc2ccccc2)c1O,1290
21,Cc1cccc(CN2CCN(c3ncc(C(=O)NC4CC4)cc3Cl)CC2)c1,1310
22,COc1cc2c(c(Cl)c1OC)CCN(Cc1ccccc1)CC2c1ccc(NC(=O)C(F)(F)F)cc1 (stereo not given),920
23,CC(C)(CC1CCCCC1)NC(=O)[C@H](CC1CCCCC1)Nc1ccc(C#N)c2ccccc12,590
